Data reported in patent US11369615B2, “Agent for improving mitochondrial dysfunction, preventative or therapeutic agent for diseases or symptoms caused by mitochondrial dysfunction, and applications therefor” (JICHI MEDICAL UNIVERSITY, priority 2017, dated 2022).
Where a name gives a salt, the structure may show the parent alone.

How the values were obtained:
[1] = tested on: ME54 cells derived from a patient with Leigh syndrome; test: Tolerance to oxidative stress by BSO, ME54 cells; format: cell-based, human
Protocol: (§1) The oxidative stress test is a known pharmaceutical agent screening method, which was carried out under the conditions where cell death was induced by addition of L-buthionine-(S,R)-sulfoximine (BSO) (Arce P M et al., ACS Med Chem Lett., May 31, 2011, Vol. 2 (8), p. 608-13, doi: 10.1021/m1200095w. eCollection, Aug. 11, 2011, PubMed PMID: 24900356; PubMed Central PMCID: PMC4018135). BSO inhibits synthesis of glutathione serving as an antioxidant in the cells to deplete glutathione, raising the level of active oxygen within the cells. The procedure of the test is as follows. The cells to be used in the test were seeded in a 96-well plate for cell culture so as to satisfy a concentration of 5,000 cells/well and 80 μL medium/well and cultured in a CO2 incubator (37° C., 5% CO2) for 24 hours. Twenty four hours after the culture, BSO and each of the pharmaceutical agents (final concentration of 1 μM) of the drug library were together added to the cells within the wells. Forty eight hours after the addition, survival rates were determined. The survival rates were determined by measuring absorbance of formazan generated by use of cell count reagent SF (Nacalai Tesque, Inc.). As a positive control compound, idebenone (Non Patent Literature 1) approved as a therapeutic agent for Leber's hereditary optic neuritis in Europe, was used in the same concentration. […]

[2] = tested on: Promo 1 cells as normal cells; test: Tolerance to oxidative stress by BSO, Promo1 normal cells; format: cell-based, human; conditions: Promo 1 normal cells; concentration range of 1 to 1000 μM
Protocol: as §1

[3] = tested on: KCMC10 cells derived from a patient with Leigh syndrome; test: Oxidative stress test (BSO-induced cell death), KCMC10 cells; format: cell-based, human; conditions: BSO plus agent 1 μM, 48 hours after addition
Source text: (§2) In mitochondrial dysfunction, for example, ATP production is damaged and/or oxidative stress increases, with the result that apoptosis of cells is induced. Because of this, individuals having mitochondrial dysfunction are reported to be less tolerant to oxidative stress, compared to normal individuals (Shrader W D et al., Bioorg Med Chem Lett., Jun. 15, 2011, Vol. 21 (12), p. 3693-8, doi: 10.1016/j.bmc1.2011.04.085. electronically published on Apr. 24, 2011, PubMed PMID: 21600768). Then, oxidative stress was given to the skin fibroblasts of individual patients mentioned above to induce apoptosis. Under the conditions, compounds of the drug library were each administered to the cells. In this manner, a primary screening was carried out. Then, candidate pharmaceutical agents selected by the primary screening were subjected to a secondary screening, which is an in-vitro evaluation test such as a mitochondrial function evaluation test and a microarray expression analysis.
(§3) The oxidative stress test is a known pharmaceutical agent screening method, which was carried out under the conditions where cell death was induced by addition of L-buthionine-(S,R)-sulfoximine (BSO) (Arce P M et al., ACS Med Chem Lett., May 31, 2011, Vol. 2 (8), p. 608-13, doi: 10.1021/m1200095w. eCollection, Aug. 11, 2011, PubMed PMID: 24900356; PubMed Central PMCID: PMC4018135). BSO inhibits synthesis of glutathione serving as an antioxidant in the cells to deplete glutathione, raising the level of active oxygen within the cells. The procedure of the test is as follows. The cells to be used in the test were seeded in a 96-well plate for cell culture so as to satisfy a concentration of 5,000 cells/well and 80 μL medium/well and cultured in a CO2 incubator (37° C., 5% CO2) for 24 hours. Twenty four hours after the culture, BSO and each of the pharmaceutical agents (final concentration of 1 μM) of the drug library were together added to the cells within the wells. Forty eight hours after the addition, survival rates were determined. The survival rates were determined by measuring absorbance of formazan generated by use of cell count reagent SF (Nacalai Tesque, Inc.). As a positive control compound, idebenone (Non Patent Literature 1) approved as a therapeutic agent for Leber's hereditary optic neuritis in Europe, was used in the same concentration.
(§4) An oxidative stress test was carried out by using three fibroblast cell lines derived from patients with a mitochondrial disease and provided in 1-2. The pharmaceutical agent showing the survival rate equal to or more than that of idebenone, a positive control compound, was determined to be effective. The results of oxidative stress test of pharmaceutical agents of the drug library to KCMC10 cells are shown in FIG. 2; the results of oxidative stress test of pharmaceutical agents of the drug library to ME54 cells are shown in FIG. 3; and the results of oxidative stress test of pharmaceutical agents of the drug library to ME110 cells are shown in FIG. 4.

[4] = tested on: ME54 cells derived from a patient with Leigh syndrome; test: Oxidative stress test (BSO-induced cell death), ME54 cells; format: cell-based, human; conditions: BSO plus agent 1 μM, 48 hours after addition
Source text: as §2, §3, §4

[5] = tested on: ME110 cells derived from a patient with MELAS; test: Oxidative stress test (BSO-induced cell death), ME110 cells; format: cell-based, human; conditions: BSO plus agent 1 μM, 48 hours after addition
Source text: as §2, §3, §4

KCMC10 cells = test: Evaluation test for mitochondrial function (extracellular flux analyzer, OCR), KCMC10 cells; format: cell-based, human; conditions: 10 to 100 nM, 24 hours after addition, vs DMSO control
Protocol: (§5) An evaluation test for mitochondrial function including ATP production (capacity) was carried out by using an extracellular flux analyzer (XFe96, Primetech Corporation). Mitochondrial function can be evaluated by continuously measuring the oxygen consumption rate (OCR) of mitochondria during ATP synthesis by use of the extracellular flux analyzer while adding ATP synthase inhibitors (oligomycin, rotenone and antimycin A) and an uncoupler (carbonyl cyanide-p-trifluoromethoxy phenylhydrazone (FCCP)). The evaluation items to be analyzed were basal respiratory volume, ATP production (capacity) and maximum respiratory volume, which are major indexes for evaluating mitochondrial function. The test procedure is as follows. The cells to be used in the test were seeded in a 96-well plate for cell culture so as to satisfy a concentration of 20,000 cells/well and 80 μL medium/well and cultured in a CO2 incubator (37° C., 5% CO2) for 24 hours. Twenty four hours after the culture, each of the pharmaceutical agents (final concentration of 1,000, 100 or 10 nM) of the drug library or the same amount of dimethyl sulfoxide (DMSO) as a control was added to the cells within wells. Twenty minutes after the addition of the pharmaceutical agent, oligomycin (final concentration of 2 μM) was added. Fifty minutes after the addition of the pharmaceutical agent, FCCP (final concentration of 2 μM) was added. Eighty minutes after the addition of the pharmaceutical agent, rotenone and antimycin A (final concentration of 0.5 μM) were sequentially added. The oxygen consumption rate (OCR) was measured with time. Based on the measurement results 24 hours after the addition of the pharmaceutical agents of the drug library, basal respiratory volume, ATP production (capacity) and maximum respiratory volume were evaluated.
(§6) Reference symbols of ** and ***, which represent p values relative to the control (DMSO) calculated by Student's t-test, show […], respectively.

ME110 cells = test: Evaluation test for mitochondrial function (extracellular flux analyzer, OCR), ME110 cells; format: cell-based, human; conditions: 10 nM, 24 hours after addition, vs DMSO control
Protocol: as §5, §6

[6] = stated as known; cited from earlier work
[7] = tested on: KCMC10 cells derived from patients with Leigh syndrome; test: Microarray expression analysis
Protocol: Expression analysis by a microarray was carried out by use of SurePrint G3 Human Gene Expression 8×60K v3 of Agilent Technologies, Inc. To KCMC10 cells derived from patients with Leigh syndrome, BSO was added, to prepare a group of patients provided with oxidative stress. To the cells, BSO and each of the candidate pharmaceutical agents selected from the drug library were both added to prepare another group. In this manner, two samples per each group were prepared. RNA was extracted from each of the samples and subjected to expression analysis by a microarray.
In the tables, the value of Log 2 ratio between the two groups of 1 means that expression ratios differ twice, the value of Log 2 ratio of 2 means 4 times difference and the value of Log 2 ratio of 3 means 8 times difference.

[8] = KCMC10, BSO/agent vs BSO, Inflammatory cytokine
[9] = KCMC10, BSO/agent vs BSO, JAK-STAT signal pathway
[10] = KCMC10, BSO/agent vs BSO, Lymphocytic tissue homing receptor
[11] = KCMC10, BSO/agent vs BSO, MARK signal pathway
[12] = KCMC10, BSO/agent vs BSO, Proinflammatory effect
[13] = KCMC10, BSO/agent vs BSO, Table 4
[14] = KCMC10, BSO/agent vs BSO, WNT signal pathway
[15] = KCMC10, BSO/agent vs BSO, mTOR signal pathway
[16] = KCMC10 cells, BSO/agent addition group vs BSO addition group

For `CCCCS(=N)(=O)CCC(N)C(=O)O` [BSO, L-buthionine-(S,R)-sulfoximine], the “concentration at which the survival rate significantly decreased” value [1] was ≥ 50 µM and the “difference in survival rates” value [2] was “no significant difference”.

With `CN1CCc2cccc3c2[C@H]1Cc1ccc(O)c(O)c1-3` [Pharmaceutical agent No. 5, R(−)-Apomorphine hydrochloride hemihydrate] the “survival rate equal to or more than that of idebenone (determined to be effective)” value (from here on “survival rate equal to or more than that”) [3] was “effective”, the “survival rate equal to or more than that” value [4] was “effective” and the “survival rate equal to or more than that” value [5] was “effective”. The “ATP production (capacity)” value (KCMC10 cells) was “significantly improved”, the basal respiratory volume (KCMC10 cells) was “significantly improved” and the maximum respiratory volume (KCMC10 cells) was “significantly improved”. The “ATP production (capacity)” value (ME110 cells) was “significantly improved”, the basal respiratory volume (ME110 cells) was “significantly improved” and the maximum respiratory volume (ME110 cells) was “significantly improved”. For the same compound, the “ability to pass through the blood-brain barrier” value [6] was “known to be able to pass through the blood-brain barrier”, the “Expression change (Increase/Decrease), CCL3” value [7, 8] was “Decrease” and the “Expression change (Increase/Decrease), IL24” value [7, 8] was “Decrease”. For the same compound, the “Expression change (Increase/Decrease), LIF” value [7, 8] was “Decrease”, the “Log 2 ratio between two groups, CCL3” value [7, 8] was −2.98 and the “Log 2 ratio between two groups, IL24” value [7, 8] was −1.77. For the same compound, the “Log 2 ratio between two groups, LIF” value [7, 8] was −3.32, the “Expression change (Increase/Decrease), BCL2A1” value [7, 9] was “Decrease” and the “Expression change (Increase/Decrease), FHL1” value [7, 9] was “Increase”. The “Expression change (Increase/Decrease), IL13RA2” value [7, 9] was “Decrease”, the “Expression change (Increase/Decrease), SOCS2” value [7, 9] was “Increase” and the “Expression change (Increase/Decrease), SOSC1” value [7, 9] was “Decrease”. For the same compound, the “Log 2 ratio between two groups, BCL2A1” value [7, 9] was −3.90, the “Log 2 ratio between two groups, FHL1” value [7, 9] was 1.01 and the “Log 2 ratio between two groups, IL13RA2” value [7, 9] was −1.63. For the same compound, the “Log 2 ratio between two groups, SOCS2” value [7, 9] was 1.30, the “Log 2 ratio between two groups, SOSC1” value [7, 9] was −1.21 and the “Expression change (Increase/Decrease), CCL19” value [7, 10] was “Decrease”. For the same compound, the “Log 2 ratio between two groups, CCL19” value [7, 10] was −4.92, the “Expression change (Increase/Decrease), DUSP6” value [7, 11] was “Decrease” and the “Log 2 ratio between two groups, DUSP6” value [7, 11] was −3.25. For the same compound, the “Expression change (Increase/Decrease), IL12A” value [7, 12] was “Decrease”, the “Log 2 ratio between two groups, IL12A” value [7, 12] was −2.71 and the “Expression change (Increase/Decrease), CCL7” value [7, 13] was “Decrease”. The “Expression change (Increase/Decrease), CSF3” value [7, 13] was “Decrease”, the “Expression change (Increase/Decrease), CXCL2” value [7, 13] was “Decrease” and the “Expression change (Increase/Decrease), CXCL3” value [7, 13] was “Decrease”. The “Expression change (Increase/Decrease), CXCL8” value [7, 13] was “Decrease”, the “Expression change (Increase/Decrease), MMP1” value [7, 13] was “Decrease” and the “Log 2 ratio between two groups, CCL7” value [7, 13] was −2.41. For the same compound, the “Log 2 ratio between two groups, CSF3” value [7, 13] was −5.58, the “Log 2 ratio between two groups, CXCL2” value [7, 13] was −2.68 and the “Log 2 ratio between two groups, CXCL3” value [7, 13] was −3.72. The “Log 2 ratio between two groups, CXCL8” value [7, 13] was −4.34, the “Log 2 ratio between two groups, MMP1” value [7, 13] was −1.40 and the “Expression change (Increase/Decrease), DKK4” value [7, 14] was “Increase”. For the same compound, the “Expression change (Increase/Decrease), FZD8” value [7, 14] was “Decrease”, the “Expression change (Increase/Decrease), GBP” value [7, 14] was “Increase” and the “Expression change (Increase/Decrease), LEF1” value [7, 14] was “Decrease”. For the same compound, the “Expression change (Increase/Decrease), SOST” value [7, 14] was “Increase”, the “Log 2 ratio between two groups, DKK4” value [7, 14] was 1.66 and the “Log 2 ratio between two groups, FZD8” value [7, 14] was −1.51. For the same compound, the “Log 2 ratio between two groups, GBP” value [7, 14] was 2.11, the “Log 2 ratio between two groups, LEF1” value [7, 14] was −1.23 and the “Log 2 ratio between two groups, SOST” value [7, 14] was 1.70. For the same compound, the “Expression change (Increase/Decrease), CAB39L” value [7, 15] was “Decrease”, the “Expression change (Increase/Decrease), DEPTOR” value [7, 15] was “Increase” and the “Expression change (Increase/Decrease), FECN” value [7, 15] was “Decrease”. For the same compound, the “Expression change (Increase/Decrease), PRR5” value [7, 15] was “Increase”, the “Expression change (Increase/Decrease), RNF152” value [7, 15] was “Decrease” and the “Expression change (Increase/Decrease), RPS6KA1” value [7, 15] was “Decrease”. The “Expression change (Increase/Decrease), RRAGD” value [7, 15] was “Decrease”, the “Expression change (Increase/Decrease), SESN2” value [7, 15] was “Increase” and the “Log 2 ratio between two groups, CAB39L” value [7, 15] was −1.37. The “Log 2 ratio between two groups, DEPTOR” value [7, 15] was 2.11, the “Log 2 ratio between two groups, FECN” value [7, 15] was −1.61 and the “Log 2 ratio between two groups, PRR5” value [7, 15] was 4.19. The “Log 2 ratio between two groups, RNF152” value [7, 15] was −1.61, the “Log 2 ratio between two groups, RPS6KA1” value [7, 15] was −1.22 and the “Log 2 ratio between two groups, RRAGD” value [7, 15] was −2.27. The “Log 2 ratio between two groups, SESN2” value [7, 15] was 1.41, the “number of genes showing a significant change in expression (expression ratio differs twice or more)” value [7, 16] was 475 types of genes and the “overall expression change of genes of the WNT-mTOR signal pathway (Table 3)” value [7, 16] was “changed toward suppressing the WNT-mTOR signal pathway”. The “overall expression change of genes related to cytokines or chemokines involved in inflammation or natural immunity (Table 4)” value [7, 16] was “changed toward suppressing expression of the cytokines or chemokines”.
